From patent US20050142531A1, “Peptidically buffered formulations for electrotransport applications and methods of making” (priority 2003, published 2005)
In brackets after ≈: the same amount, converted by molar mass. Structures can show the parent of a compound that is named as a salt. Peptide text beside a SMILES is read from it.

Experiments:
[1] = cited from earlier work
[2] = pKa, pI and % salt of peptidic buffers; assay type: physicochemical
[3] = Conductivities and solubilities of selected multipeptides at their pI; assay type: physicochemical; settings: for pI: Table 1; for Solubility: at pI
Source text: Table 1 lists conductivities and solubilities of selected multipeptides useful in the present invention, at their pI. The pH buffering capacity of the peptidic buffers of the present invention can be explained by using Gly-His at pH 7.5 as an example (the pI of Gly-His is 7.55). At this pH, the net charge of the molecule is essentially zero. At the pI, three species coexist. The bulk of the molecule (70%) consists of the neutral species that bears two internal charges, one positive and one negative resulting in a net charge of zero. […] Although there are small percentages of species presenting a net positive or negative charge in solution, there is minimal ionic transport of these charged species due to charge equilibrium between the three species (i.e., a positive charge migrating in the electric field will revert almost instantly to its neutral form and lose momentum or to its negative form and migrate backward). Thus, there is little if any ionic transport of the charged peptides into the systemic circulation of the patient. Due to the same principle of charge equilibrium, any depletion of the charged molecules will be compensated immediately by dissociation of the neutral form to its charged species thereby providing a reservoir insuring long term pH stability. In addition, if loss of the molecule occurs by electroosmosis of the neutral species, this will not result in any pH changes.

pka A (acidic pKa) ([2]; Table 2, first acidic pKa) | pka B (basic pKa) ([2]; Table 2, first basic pKa) | pka A (acidic pKa) ([2]; Table 2, second acidic pKa) | pka B (basic pKa) ([2]; Table 2, second basic pKa) | pI [3] | Solubility [3] [mM] | SMILES | further results
2.28 | 6.45 | 3.99 | 8.19 | 5.22 | 50 (≈ 13.5 mg/mL) | N[C@@H](Cc1c[nH]cn1)C(=O)N[C@@H](CC(=O)O)C(=O)O [His-Asp] (H-His-Asp-OH; N-terminus and C-terminus assumed) | 
2.30 | 6.32 | 4.19 | 8.07 | 5.20 | 400 (≈ 114 mg/mL) | N[C@@H](Cc1c[nH]cn1)C(=O)N[C@@H](CCC(=O)O)C(=O)O [His-Glu] (H-His-Glu-OH; N-terminus and C-terminus assumed) | 
2.42 | 6.71 |  | 7.30 |  |  | NCCC[C@H](N)C(=O)N[C@@H](Cc1c[nH]cn1)C(=O)O [Ornithine-His] | pka B (basic pKa) ([2]; Table 2, third basic pKa): 11.00
2.42 | 6.71 |  | 7.70 |  |  | N[C@@H](Cc1ccccc1)C(=O)N[C@@H](Cc1c[nH]cn1)C(=O)O [Phe-His] (H-Phe-His-OH; N-terminus and C-terminus assumed) | 
2.42 | 6.71 |  | 7.70 |  |  | N[C@@H](CO)C(=O)N[C@@H](Cc1c[nH]cn1)C(=O)O [Ser-His] (H-Ser-His-OH; N-terminus and C-terminus assumed) | 
2.42 | 6.71 |  | 7.60 |  |  | C[C@@H](O)[C@H](N)C(=O)N[C@@H](Cc1c[nH]cn1)C(=O)O [Thr-His] (H-Thr-His-OH; N-terminus and C-terminus assumed) | 
2.42 | 6.71 |  | 7.90 |  |  | N[C@@H](Cc1c[nH]c2ccccc12)C(=O)N[C@@H](Cc1c[nH]cn1)C(=O)O [Trp-His] (H-Trp-His-OH; N-terminus and C-terminus assumed) | 
2.64 | 7.39 | 9.36 | 11.62 |  |  | N=C(N)NCCC[C@H](NC(=O)[C@@H](N)Cc1ccc(O)cc1)C(=O)O [Tyr-Arg] | 
2.42 | 6.71 | 9.90 | 7.60 |  |  | N[C@@H](Cc1ccc(O)cc1)C(=O)N[C@@H](Cc1c[nH]cn1)C(=O)O [Tyr-His] (H-Tyr-His-OH; N-terminus and C-terminus assumed) | 
3.09 | 6.83 |  | 7.94 | 7.38 | 200 (≈ 50.9 mg/mL) | CC(C)[C@H](N)C(=O)N[C@@H](Cc1c[nH]cn1)C(=O)O [Val-His] (H-Val-His-OH; N-terminus and C-terminus assumed) | 

Continued, compound first:

SMILES | pka A (acidic pKa) ([2]; Table 2, first acidic pKa) | pka B (basic pKa) ([2]; Table 2, first basic pKa) | pka A (acidic pKa) ([2]; Table 2, second acidic pKa) | pka B (basic pKa) ([2]; Table 2, second basic pKa) | pI [3] | Solubility [3] [mM] | further results
CO/N=C(\C(=O)N[C@@H]1C(=O)N2C(C(=O)O)=C(CSc3nc(C)c(CC(=O)O)s3)CS[C@H]12)c1csc(N)n1 [Cefodizime disodium salt] |  |  |  |  |  |  | pKa (first value) ([1]; first listed): 2.85; pKa (second value) ([1]; second listed): 3.37; pKa (third value) ([1]; third listed): 4.18
NCCCC[C@H](NC(=O)[C@@H](N)CCC(=O)O)C(=O)O [Glu-Lys] (H-Glu-Lys-OH; N-terminus and C-terminus assumed) | 2.85 | 7.94 | 4.01 | 11.07 | 6.00 | 1000 (≈ 275 mg/mL) | 
NCC(=O)N[C@@H](Cc1c[nH]cn1)C(=O)O [Gly-His] (H-Gly-His-OH; N-terminus and C-terminus assumed) | 2.42 | 6.71 |  | 8.39 | 7.55 | 1000 (≈ 212 mg/mL) | 
C[C@H](NC(=O)[C@@H](N)Cc1c[nH]cn1)C(=O)O [His-Ala] (H-His-Ala-OH; N-terminus and C-terminus assumed) | 2.48 | 6.10 |  | 7.80 | 6.95 | 500 (≈ 113 mg/mL) | 
N[C@@H](Cc1c[nH]cn1)C(=O)NCC(=O)O [His-Gly] (H-His-Gly-OH; N-terminus and C-terminus assumed) | 2.41 | 5.90 |  | 7.91 | 6.90 | 1000 (≈ 212 mg/mL) | 
NCCCC[C@H](N)C(=O)N[C@@H](CC(=O)O)C(=O)O [Lys-Asp] (H-Lys-Asp-OH; N-terminus and C-terminus assumed) | 2.64 | 8.05 | 4.10 | 11.20 | 6.08 | 1000 (≈ 261 mg/mL) | 
NCCCC[C@H](N)C(=O)N[C@@H](CCC(=O)O)C(=O)O [Lys-Glu] (H-Lys-Glu-OH; N-terminus and C-terminus assumed) | 2.74 | 7.92 | 4.18 | 11.12 | 6.06 | 500 (≈ 138 mg/mL) | 
O=C(O)[C@H](Cc1c[nH]cn1)NC(=O)[C@@H]1CCCN1 [Pro-His] | 2.42 | 6.71 |  | 9.10 |  |  | 
CO/N=C(\C(=O)N[C@@H]1C(=O)N2C(C(=O)O)=C(CSc3nc(=O)c(=O)[nH]n3C)CS[C@H]12)c1csc(N)n1 [ceftriaxone] |  |  |  |  |  |  | pKa (amine) ([1]; amine): 3.2; pKa (carboxylic) ([1]; carboxylic): 3; pKa (enolic OH) ([1]; enolic OH): 4.1
